Where “and” joins values, the source holds several entries; their conditions need not be identical. Identical values can stand only once. Counter-ions that a name gives are not always drawn.
Experiments:
MtBPL [1] = molecular target: T1, MtBPL (Mycobacterium tuberculosis, UniProt I6YFP0); conditions: for -TΔS: calculated from ΔG (displacement) and ΔH (direct titration); for ΔH: direct titration ITC, 25 °C
MtBPL [2] = molecular target: T1, MtBPL; conditions: for ΔG: from K of displacement ITC, 298 K
[3] = cyclonucleoside formation or decomposition at room temperature
MtBPL [4] = molecular target: T1, MtBPL; experiment: biochemical
M. tuberculosis H37Rv = experiment: microbe, parasite or virus in culture; conditions: Mycobacterium tuberculosis
MtBPL [5] = molecular target: T1, MtBPL; experiment: biochemical; conditions: read-out: ΔTm
[6] = system: MDR-TB and XDR-TB strains; conditions: ten MDR-TB and XDR-TB strains; cited from earlier work

T1 sequence (I6YFP0 whole entry, looked up): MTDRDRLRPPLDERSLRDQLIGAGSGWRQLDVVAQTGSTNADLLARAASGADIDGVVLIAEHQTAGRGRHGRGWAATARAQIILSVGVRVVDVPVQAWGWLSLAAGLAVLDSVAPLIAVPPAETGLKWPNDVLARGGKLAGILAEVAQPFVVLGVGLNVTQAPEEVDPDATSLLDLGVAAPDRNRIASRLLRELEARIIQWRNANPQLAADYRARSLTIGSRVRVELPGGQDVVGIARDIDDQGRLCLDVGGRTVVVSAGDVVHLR

Row | SMILES | -TΔS (MtBPL [1]) [kcal/mol] | ΔH (MtBPL [1]) | ΔG (MtBPL [2]) | chemical stability [3] | Kd (MtBPL [4]) [nM] | MIC90 (M. tuberculosis H37Rv) [µM] | ΔTm at 43 µM (MtBPL [5]) [°C] | fold more potent than 14 (KD) (MtBPL [2]) [fold] | MIC [6] [µM]
1 | CCN(CC)CC.Nc1ncnc2c1ncn2[C@H]1CNC[C@@H](COS(=O)(=O)NC(=O)CCCC[C@@H]2SC[C@@H]3NC(=O)N[C@@H]32)O1 [Compound 82, (2′R,6′S)-9-[6′-({[N-(D-Biotinoyl)sulfamoyl]oxy}methyl)morpholin-2′-yl]adenine triethylammonium salt] | 5.9 ± 0.1 | -18.8 ± 0.0 kcal/mol | -12.9 ± 0.9 kcal/mol |  |  |  |  |  | 
2 | CCN(CC)CC.Nc1ncnc2c1ncn2[C@@H]1O[C@H](CNS(=O)(=O)NC(=O)CCCC[C@@H]2SC[C@@H]3NC(=O)N[C@@H]32)C[C@H]1O [Compound 87, 5′-[N-(D-Biotinoyl)sulfamoyl]amino-3′,5′-dideoxyadenosine triethylammonium salt] | 8.8 ± 0.6 | -21.4 ± 0.5 kcal/mol | -12.6 ± 0.1 kcal/mol |  |  |  |  |  | 
3 | CCN(CC)CC.Nc1ncnc2c1ncn2[C@@H]1O[C@H](COS(=O)(=O)NC(=O)CCCC[C@@H]2SC[C@@H]3NC(=O)N[C@@H]32)[C@@H](O)[C@@H]1F [Compound 69, 9-{5′-O-[N-(D-Biotinoyl)sulfamoyl]-2′-deoxy-2′-fluoro-β-D-arabinofuranosyl}adenine triethylammonium salt] | 14.7 ± 0.5 | -28.4 kcal/mol and -28.4 ± 0.6 kcal/mol | -13.4 ± 0.0 kcal/mol | resisted any cyclonucleoside formation |  |  |  |  | 
4 | CCN(CC)CC.Nc1ncnc2c1ncn2[C@@H]1O[C@H](CNS(=O)(=O)NC(=O)CCCC[C@@H]2SC[C@@H]3NC(=O)N[C@@H]32)[C@@H](O)[C@H]1F [Compound 63, 5′-[N-(D-Biotinoyl)sulfamoyl]amino-2′,5′-dideoxy-2′-fluoroadenosine triethylammonium salt] | 11.8 ± 0.5 | -24.3 kcal/mol and -24.3 ± 0.5 kcal/mol | -12.6 ± 0.3 kcal/mol |  |  |  |  |  | 
5 | CCN(CC)CC.C[C@@]1(O)[C@H](O)[C@@H](COS(=O)(=O)NC(=O)CCCC[C@@H]2SC[C@@H]3NC(=O)N[C@@H]32)O[C@H]1n1cnc2c(N)ncnc21 [Compound 73, 5′-O-[N-(D-Biotinoyl)sulfamoyl]-β-2'-methyladenosine triethylammonium salt] | 8.1 ± 0.5 | -20.3 ± 0.4 kcal/mol | -12.4 ± 0.4 kcal/mol | resisted any cyclonucleoside formation |  |  |  |  | 
6 | CCN(CC)CC.Nc1ncnc2c1ncn2[C@@H]1C[C@H](CNS(=O)(=O)NC(=O)CCCC[C@@H]2SC[C@@H]3NC(=O)N[C@@H]32)[C@@H](O)[C@H]1O [Compound 28] | 7.8 ± 0.2 | -20.2 ± 0.2 kcal/mol | -12.4 kcal/mol and -12.4 ± 0.0 kcal/mol |  |  |  |  |  | 
7 | CCN(CC)CC.Nc1ncnc2c1ncn2[C@@H]1O[C@H](CNS(=O)(=O)NC(=O)CCCC[C@@H]2SC[C@@H]3NC(=O)N[C@@H]32)[C@@H](O)[C@H]1N [Compound 47] | 6.5 ± 0.2 | -19.1 ± 0.1 kcal/mol | -12.6 ± 1.0 kcal/mol |  |  |  |  |  | 
8 | [N-]=[N+]=N[C@H]1[C@H](O)[C@@H](COS(=O)(=O)NC(=O)CCCC[C@@H]2SC[C@@H]3NC(=O)N[C@@H]32)O[C@H]1n1cnc2c(N)ncnc21 [Compound 57, 9-{2′-Azido-5′-O-[N-(D-biotinoyl)sulfamoyl]-2′-deoxy-β-D-arabinofuranosyl}adenine triethylammonium salt] | 14.9 ± 0.1 |  | -14.4 ± 0.2 kcal/mol | resisted any cyclonucleoside formation | 0.027 | > 100 | 17 ± 1 | 32 | 
9 | CCN(CC)CC.Nc1ncnc2c1ncn2[C@H]1C=C[C@@H](CNS(=O)(=O)NC(=O)CCCC[C@@H]2SC[C@@H]3NC(=O)N[C@@H]32)C1 [Compound 34] | 10.3 ± 0.2 | -22.1 ± 0.2 kcal/mol | -11.8 ± 0.2 kcal/mol |  |  |  |  |  | 
10 | CCN(CC)CC.Nc1ncnc2c1ncn2[C@H]1CC[C@@H](CNS(=O)(=O)NC(=O)CCCC[C@@H]2SC[C@@H]3NC(=O)N[C@@H]32)C1 [Compound 36] | 10.7 ± 0.4 | -23.5 ± 0.4 kcal/mol | -12.6 ± 0.2 kcal/mol |  |  |  |  |  | 
11 | CCN(CC)CC.[N-]=[N+]=N[C@@H]1[C@H](O)[C@@H](CNS(=O)(=O)NC(=O)CCCC[C@@H]2SC[C@@H]3NC(=O)N[C@@H]32)O[C@H]1n1cnc2c(N)ncnc21 [Compound 46] | 10.9 ± 0.3 | -23.2 ± 0.2 kcal/mol | -12.3 ± 0.6 kcal/mol |  |  |  |  |  | 
12 | Nc1ncnc2c1ncn2[C@@H]1O[C@H](CNS(=O)(=O)NC(=O)CCCC[C@@H]2SC[C@@H]3NC(=O)N[C@@H]32)[C@@H](O)[C@H]1O [Compound 14, 5′-[N-(D-biotinoyl)sulfamoyl]amino-5′-deoxyadenosine triethylammonium salt] | 6.6 ± 0.1 | -18.9 ± 0.1 kcal/mol |  |  |  |  |  |  | 0.16 to 0.625

— paper PMC4667793 (Journal of medicinal chemistry, 2015)
